Measured values as given in patent US11661259B2, “Apparatus, arrangement and method for providing skin care ingredients” (MEMORIAL SLOAN-KETTERING CANCER CENTER, priority 2013, dated 2023).

Legend:
[1] = Time required to completely dissolve Vitamin C powder in water; type: physicochemical
Excerpt: 1. Determine the amount of time required to completely dissolve Vitamin C powder with 12 to 15 cc of water. In general, it requires 45 to 120 seconds to completely dissolve 1% to 15% Vitamin C powder in water.

[2] = Decay of vitamin stored in liquid solution (loss of initial activity); conditions: dissolved in a liquid solution, stored in a closed and dark container, after 60 days

In the case of O=C1O[C@H]([C@@H](O)CO)C(O)=C1O [Vitamin C, L-ascorbic acid], the “Time to completely dissolve” value ([1]; 1% to 15% Vitamin C powder in water) is reported as 45 to 120 s, the “Time to completely dissolve” value ([1]; 1 wt % Vitamin C, 151 mg in 15 g water) is reported as 60 s and the “Time to completely dissolve” value ([1]; 5 wt % Vitamin C, 526 mg in 12 g water) is reported as 45 s. The “Time to completely dissolve” value ([1]; 10 wt % Vitamin C, 1107 mg in 12 g water) was 75 s, the “Time to completely dissolve” value ([1]; 15 wt % Vitamin C, 1765 mg in 12 g water) was 120 s and the “Time to completely dissolve” value ([1]; 20 wt % Vitamin C, 2496 mg in 12 g water) was 210 s. The “loss of initial activity” value [2] was about 72%.

In the case of tocopherol [Vitamin E], the “loss of initial activity” value [2] is reported as about 35%.
